# Key:
# [1] = target: T1, 5-hydroxytryptamine receptor 3A (Rattus norvegicus, UniProt P35563); assay: Compound was tested for its binding affinity towards 5-HT-3 receptor in whole rat brain using (S)-[125I]-zacopride as the radioligand.
# T1 sequence (P35563 whole entry): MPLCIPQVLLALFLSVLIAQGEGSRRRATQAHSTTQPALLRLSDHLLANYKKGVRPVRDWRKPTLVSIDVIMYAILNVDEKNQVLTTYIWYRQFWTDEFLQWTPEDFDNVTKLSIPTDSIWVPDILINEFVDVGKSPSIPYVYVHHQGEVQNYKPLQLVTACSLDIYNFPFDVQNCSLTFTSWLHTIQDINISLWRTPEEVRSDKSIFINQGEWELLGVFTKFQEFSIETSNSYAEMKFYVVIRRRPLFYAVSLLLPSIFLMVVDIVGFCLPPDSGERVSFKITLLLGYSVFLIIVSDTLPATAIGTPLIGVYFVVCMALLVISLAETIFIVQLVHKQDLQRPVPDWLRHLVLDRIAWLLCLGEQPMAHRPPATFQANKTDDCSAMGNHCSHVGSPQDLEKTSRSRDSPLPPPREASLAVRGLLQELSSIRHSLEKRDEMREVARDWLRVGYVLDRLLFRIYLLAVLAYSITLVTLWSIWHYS
# [2] = Apparent lipophilicity value of the compound.; format: physicochemical; conditions: octanol/water
# [3] = target: T1, 5-hydroxytryptamine receptor 3A; assay: Compound was tested for its binding affinity towards 5-hydroxytryptamine 3 receptor in whole rat brain using [125I]DAIZAC as the radioligand.
# [4] = target: T1, 5-hydroxytryptamine receptor 3A; assay: Compound was tested for its binding affinity towards 5-hydroxytryptamine 3 receptor
# [5] = target: T1, 5-hydroxytryptamine receptor 3A; assay: Compound was tested in vitro for its antagonistic activity against 5-hydroxytryptamine 3 receptor in rat CNS.; format: functional
# [6] = target: T1, 5-hydroxytryptamine receptor 3A; assay: Compound was tested for its binding affinity towards 5-hydroxytryptamine 3 receptor in whole rat brain using (S)-[125I]-zacopride as the radioligand.
# [7] = target: T1, 5-hydroxytryptamine receptor 3A; assay: Compound was tested in vitro for its antagonistic activity against 5-hydroxytryptamine 3 receptor; format: functional
# [8] = target: T1, 5-hydroxytryptamine receptor 3A; assay: Compound was tested for its antagonistic activity against 5-hydroxytryptamine 3 receptor in rat brain using [3H]zacopride as the radioligand.; format: functional, tissue-based
compound,measurement,setting,value
COc1c(C(=O)N[C@@H]2CN3CCC2CC3)cc(Cl)c(N)c1I,Ki,[1],0.052 nM
same,logD,[2],2.12
same,Ki,[3],0.075 nM
same,Ki,[4],0.05 nM
COc1cc(N)c(I)cc1C(=O)NC1CN2CCC1CC2 (centres undefined),Kd,[5],2.6 nM
same,Ki,[6],1.07 nM
same,Ki,[3],1.37 nM
COc1c(I)cc(Cl)cc1C(=O)N[C@@H]1CN2CCC1CC2,Kd,[7],0.15 nM
COc1cc(N)c(Cl)cc1C(=O)NC1CN2CCC1CC2 (centres undefined) [ZACOPRIDE],Kd,[8],0.6 nM
